Starred links: 1 amine or outer side, 2 acyl side, 3 side chain; linkers in the order of their positions; H or OH if unused. Positions of bridges follow the written chain, without caps; N, C: chain ends. Non-standard residues stand in square brackets, D forms with d. Residues, ends and D or L forms follow the SMILES beside them. Groups on a side chain read outwards from the residue. *: point of attachment. Ala(piperidin-4-yl) = O=C([C@H](CC1CCN([*:3])CC1)N[*:1])[*:2]; DOTA = O=C(O)CN1CCN(CC(=O)O)CCN(CC(=O)*)CCN(CC(=O)O)CC1; Trp(5-F) = N[C@@H](Cc1c[nH]c2ccc(F)cc12)C(=O)O; X13 = NC(=O)N1CCC(C[C@H](N[*:1])C(=O)[*:2])CC1; X15 = CC(=O)N1CCC(C[C@H](N[*:1])C(=O)[*:2])CC1; X1 = C[C@@H](c1ccccc1)[C@H](N[*:1])C(=O)[*:2]; Val(3-OH) = CC(C)(O)[C@H](N)C(=O)O; PEG4 = NCCOCCOCCOCCOCCC(=O)O; Tle = CC(C)(C)[C@H](N)C(=O)O; hLeu = CC(C)CC[C@H](N)C(=O)O
Biological target: T1, human 4lg B7-H3 (Homo sapiens, UniProt Q5ZPR3)
T1 sequence (Q5ZPR3 29-534): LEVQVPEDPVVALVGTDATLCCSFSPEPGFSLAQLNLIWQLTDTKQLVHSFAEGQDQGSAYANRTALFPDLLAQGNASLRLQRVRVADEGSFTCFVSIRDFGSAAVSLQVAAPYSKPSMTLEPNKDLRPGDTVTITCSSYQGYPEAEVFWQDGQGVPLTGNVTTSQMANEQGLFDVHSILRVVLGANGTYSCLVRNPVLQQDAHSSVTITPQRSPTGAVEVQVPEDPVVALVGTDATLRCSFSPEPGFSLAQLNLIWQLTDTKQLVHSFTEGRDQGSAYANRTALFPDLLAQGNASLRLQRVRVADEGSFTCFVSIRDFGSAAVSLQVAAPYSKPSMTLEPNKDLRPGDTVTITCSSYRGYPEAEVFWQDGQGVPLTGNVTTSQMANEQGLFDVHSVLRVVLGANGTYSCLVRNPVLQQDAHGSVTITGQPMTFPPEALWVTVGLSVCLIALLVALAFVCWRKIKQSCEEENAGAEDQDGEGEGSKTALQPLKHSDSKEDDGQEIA
Assay: Affinity determination by surface plasmon resonance (SPR) to 4Ig B7-H3
Conditions: SPR KD—37° C., 4Ig B7-H3; 37° C. flow cell temperature

CC(=O)NCCCC[C@@H]1NC(=O)CNC(=O)[C@H](C(C)(C)C)NC(=O)[C@@H](NC(=O)[C@H](Cc2ccc(O)cc2)NC(=O)[C@H](CCC(C)C)NC(C)=O)CSSC[C@@H](C(=O)N[C@@H](Cc2c[nH]c3ccc(F)cc23)C(=O)N[C@H](C(=O)N[C@H](C(=O)N[C@H](C)C(=O)O)C(C)(C)O)[C@@H](C)c2ccccc2)NC(=O)[C@H](Cc2ccc(O)cc2)NC(=O)[C@H](C(C)C)NC(=O)[C@H](CC(=O)O)NC(=O)[C@H](CC2CCN(C(=O)CCOCCOCCOCCOCCNC(=O)CN3CCN(CC(=O)O)CCN(CC(=O)O)CCN(CC(=O)O)CC3)CC2)NC1=O [compound 512, Ac-hLeu-Y-C-Tbg-G-Lys(Ac)-Pip(PEG4-DOTA)Ala-D-V-Y-C-5FW-[(2S, 3S)beta-Me-Phe]-hydroxyVal-dAla-COOH] (Ac-[hLeu]YC[Tle]GK(Ac)[Ala(piperidin-4-yl)]([PEG4-DOTA])DVYC[Trp(5-F)][X1][Val(3-OH)][dA]-OH; disulfide 3-11)
Kd: < 1 nM

CC(=O)N[C@@H](CCC(C)C)C(=O)N[C@@H](Cc1ccc(O)cc1)C(=O)N[C@H]1CSSC[C@@H](C(=O)N[C@@H](Cc2c[nH]c3ccc(F)cc23)C(=O)N[C@H](C(=O)N[C@H](C(=O)N[C@H](C)C(=O)O)C(C)(C)O)[C@@H](C)c2ccccc2)NC(=O)[C@H](Cc2ccc(O)cc2)NC(=O)[C@H](C(C)C)NC(=O)[C@H](CC(=O)O)NC(=O)[C@H](CC2CCN(C(=O)CCOCCOCCOCCOCCNC(=O)CN3CCN(CC(=O)O)CCN(CC(=O)O)CCN(CC(=O)O)CC3)CC2)NC(=O)[C@H](CC2CCN(C(C)=O)CC2)NC(=O)CNC(=O)[C@H](C(C)(C)C)NC1=O [compound 513, Ac-hLeu-Y-C-Tbg-G-Pip(Ac)Ala-Pip(PEG4-DOTA)Ala-D-V-Y-C-5FW-[(2S, 3S)beta-Me-Phe]-hydroxyVal-dAla-COOH] (Ac-[hLeu]YC[Tle]G[X15][Ala(piperidin-4-yl)]([PEG4-DOTA])DVYC[Trp(5-F)][X1][Val(3-OH)][dA]-OH; disulfide 3-11)
Kd: < 1 nM

CC(=O)N[C@@H](CCC(C)C)C(=O)N[C@@H](Cc1ccc(O)cc1)C(=O)N[C@H]1CSSC[C@@H](C(=O)N[C@@H](Cc2c[nH]c3ccc(F)cc23)C(=O)N[C@H](C(=O)N[C@H](C(=O)N[C@H](C)C(=O)O)C(C)(C)O)[C@@H](C)c2ccccc2)NC(=O)[C@H](Cc2ccc(O)cc2)NC(=O)[C@H](C(C)C)NC(=O)[C@H](CC(=O)O)NC(=O)[C@H](CC2CCN(C(=O)CCOCCOCCOCCOCCNC(=O)CN3CCN(CC(=O)O)CCN(CC(=O)O)CCN(CC(=O)O)CC3)CC2)NC(=O)[C@H](CC2CCN(C(N)=O)CC2)NC(=O)CNC(=O)[C@H](C(C)(C)C)NC1=O [compound 514, Ac-hLeu-Y-C-Tbg-G-Pip(CONH2)Ala-Pip(PEG4-DOTA)Ala-D-V-Y-C-5FW-[(2S, 3S)beta-Me-Phe]-hydroxyVal-dAla-COOH] (Ac-[hLeu]YC[Tle]G[X13][Ala(piperidin-4-yl)]([PEG4-DOTA])DVYC[Trp(5-F)][X1][Val(3-OH)][dA]-OH; disulfide 3-11)
Kd: < 1 nM

CC(=O)NCCOCCOCCOCCOCCC(=O)N1CCC(C[C@@H]2NC(=O)[C@H](CC3CCNCC3)NC(=O)CNC(=O)[C@H](C(C)(C)C)NC(=O)[C@@H](NC(=O)[C@H](Cc3ccc(O)cc3)NC(=O)[C@H](CCC(C)C)NC(C)=O)CSSC[C@@H](C(=O)N[C@@H](Cc3c[nH]c4ccc(F)cc34)C(=O)N[C@H](C(=O)N[C@H](C(=O)N[C@H](CCCCNC(=O)CN3CCN(CC(=O)O)CCN(CC(=O)O)CCN(CC(=O)O)CC3)C(=O)O)C(C)(C)O)[C@@H](C)c3ccccc3)NC(=O)[C@H](Cc3ccc(O)cc3)NC(=O)[C@H](C(C)C)NC(=O)[C@H](CC(=O)O)NC2=O)CC1 [compound 515, Ac-hLeu-Y-C-Tbg-G-PipAla-Pip(PEG4-Ac)Ala-D-V-Y-C-5FW-[(2S, 3S)beta-Me-Phe]-hydroxyVal-dLys(DOTA)-COOH] (Ac-[hLeu]YC[Tle]G[Ala(piperidin-4-yl)][Ala(piperidin-4-yl)]([PEG4-Ac])DVYC[Trp(5-F)][X1][Val(3-OH)][dK](DOTA)-OH; disulfide 3-11)
Kd: < 1 nM
